System: Erysiphe graminis—ERYSGT
Test: Powdery Mildew of Wheat, in vivo whole plant, 24 Hour Protectant
Settings: Erysiphe; 100 ppm spray, wheat, 24 hour protectant; control of fungal infection vs untreated plants; read-out: ERYSGT in vivo 1 Day Protectant

Row | Structure (SMILES) | pest or weed control at 100 ppm [%]
1 | COc1ccnc(C(=O)N[C@H]2O[C@@H](C)[C@@H](OC(C)=O)[C@@H](OC(C)=O)[C@@H]2OC(C)=O)c1O [Compound 333] | < 25

Same assay, conditions: Erysiphe; wheat plants sprayed at 100 ppm, inoculated after 24 hours; control of fungal infection vs untreated plants; read-out: ERYSGT in vivo 1 Day Protectant

Row | Structure (SMILES) | pest or weed control at 100 ppm [%]
2 | Cc1cc(C)c(C(=O)N[C@H]2COC(=O)[C@H](Cc3ccccc3)[C@@H](OC(=O)C(C)C)[C@H](C)OC2=O)c(O)n1 [Compound 529] | < 25
3 | O=C(Nc1ccc(Oc2cccc(C(F)(F)F)c2)cc1)c1nc(Br)ccc1O [Compound 498] | < 25
4 | O=C(NCc1ccccc1)c1ccncc1O [Compound 506] | < 25

System: Leptosphaeria nodorum—LEPTNO
Test: Glume Blotch of Wheat, in vivo whole plant, 24 Hour Protectant
Settings: Leptosphaeria; 100 ppm spray, wheat, 24 hour protectant; control of fungal infection vs untreated plants; read-out: LEPTNO in vivo 1 Day Protectant

Row | Structure (SMILES) | pest or weed control at 100 ppm [%]
5 | COc1ccnc(C(=O)N[C@H]2O[C@@H](C)[C@@H](OC(C)=O)[C@@H](OC(C)=O)[C@@H]2OC(C)=O)c1O [Compound 333] | 25 to 74

Same assay, conditions: Leptosphaeria; wheat plants sprayed at 100 ppm, inoculated after 24 hours; control of fungal infection vs untreated plants; read-out: LEPTNO in vivo 1 Day Protectant

Row | Structure (SMILES) | pest or weed control at 100 ppm [%]
6 | Cc1cc(C)c(C(=O)N[C@H]2COC(=O)[C@H](Cc3ccccc3)[C@@H](OC(=O)C(C)C)[C@H](C)OC2=O)c(O)n1 [Compound 529] | 25 to 74
7 | O=C(Nc1ccc(Oc2cccc(C(F)(F)F)c2)cc1)c1nc(Br)ccc1O [Compound 498] | < 25
8 | O=C(NCc1ccccc1)c1ccncc1O [Compound 506] | < 25

System: Stagonospora nodorum (Leptosphaeria nodorum—LEPTNO)
Test: In vitro fungal growth inhibition, Stagonospora nodorum (LEPTNO)
Assay type: cell-based
Settings: Leptosphaeria; 25 ppm in growth medium; read-out: LEPTNO in vitro Growth Inhibition

Row | Structure (SMILES) | inhibition at 25 ppm [%]
9 | COc1ccnc(C(=O)N[C@H]2O[C@@H](C)[C@@H](OC(C)=O)[C@@H](OC(C)=O)[C@@H]2OC(C)=O)c1O [Compound 333] | < 80

Same assay, conditions: Leptosphaeria; 25 ppm in the growth medium; read-out: LEPTNO in vitro Growth Inhibition

Row | Structure (SMILES) | inhibition at 25 ppm [%]
10 | Cc1cc(C)c(C(=O)N[C@H]2COC(=O)[C@H](Cc3ccccc3)[C@@H](OC(=O)C(C)C)[C@H](C)OC2=O)c(O)n1 [Compound 529] | < 80
11 | O=C(Nc1ccc(Oc2cccc(C(F)(F)F)c2)cc1)c1nc(Br)ccc1O [Compound 498] | < 80
12 | O=C(NCc1ccccc1)c1ccncc1O [Compound 506] | < 80

System: Mycosphaerella graminicola (Septoria tritici—SEPTTR)
Test: In vitro fungal growth inhibition, Mycosphaerella graminicola (SEPTTR)
Assay type: cell-based
Settings: Zymoseptoria tritici; 25 ppm in growth medium; read-out: SEPTTR in vitro Growth Inhibition

Row | Structure (SMILES) | inhibition at 25 ppm [%]
13 | COc1ccnc(C(=O)N[C@H]2O[C@@H](C)[C@@H](OC(C)=O)[C@@H](OC(C)=O)[C@@H]2OC(C)=O)c1O [Compound 333] | < 80

Same assay, conditions: Zymoseptoria tritici; 25 ppm in the growth medium; read-out: SEPTTR in vitro Growth Inhibition

Row | Structure (SMILES) | inhibition at 25 ppm [%]
14 | Cc1cc(C)c(C(=O)N[C@H]2COC(=O)[C@H](Cc3ccccc3)[C@@H](OC(=O)C(C)C)[C@H](C)OC2=O)c(O)n1 [Compound 529] | < 80
15 | O=C(Nc1ccc(Oc2cccc(C(F)(F)F)c2)cc1)c1nc(Br)ccc1O [Compound 498] | < 80
16 | O=C(NCc1ccccc1)c1ccncc1O [Compound 506] | < 80

System: Rhizoctonia solani (RHIZSO)
Test: microbe, parasite or virus in culture
Assay type: cell-based
Settings: Rhizoctonia solani, read-out: RHIZSO in vitro Growth Inhibition

Row | Structure (SMILES) | inhibition at 25 ppm [%]
17 | Cc1cc(C)c(C(=O)N[C@H]2COC(=O)[C@H](Cc3ccccc3)[C@@H](OC(=O)C(C)C)[C@H](C)OC2=O)c(O)n1 [Compound 529] | < 80
18 | O=C(Nc1ccc(Oc2cccc(C(F)(F)F)c2)cc1)c1nc(Br)ccc1O [Compound 498] | < 80
19 | O=C(NCc1ccccc1)c1ccncc1O [Compound 506] | < 80
20 | COc1ccnc(C(=O)N[C@H]2O[C@@H](C)[C@@H](OC(C)=O)[C@@H](OC(C)=O)[C@@H]2OC(C)=O)c1O [Compound 333] | < 80

System: Phytophthora infestans (PHYTIN)
Test: microbe, parasite or virus in culture
Assay type: cell-based
Settings: Phytophthora infestans, read-out: PHYTIN in vitro Growth Inhibition

Row | Structure (SMILES) | inhibition at 25 ppm [%]
21 | Cc1cc(C)c(C(=O)N[C@H]2COC(=O)[C@H](Cc3ccccc3)[C@@H](OC(=O)C(C)C)[C@H](C)OC2=O)c(O)n1 [Compound 529] | < 80
22 | O=C(Nc1ccc(Oc2cccc(C(F)(F)F)c2)cc1)c1nc(Br)ccc1O [Compound 498] | < 80
23 | O=C(NCc1ccccc1)c1ccncc1O [Compound 506] | < 80
24 | COc1ccnc(C(=O)N[C@H]2O[C@@H](C)[C@@H](OC(C)=O)[C@@H](OC(C)=O)[C@@H]2OC(C)=O)c1O [Compound 333] | < 80

System: Magnaporthe grisea (Pyricularia oryzae—PYRIOR)
Test: microbe, parasite or virus in culture
Assay type: cell-based
Settings: Pyricularia oryzae, read-out: PYRIOR in vitro Growth Inhibition

Row | Structure (SMILES) | inhibition at 25 ppm [%]
25 | Cc1cc(C)c(C(=O)N[C@H]2COC(=O)[C@H](Cc3ccccc3)[C@@H](OC(=O)C(C)C)[C@H](C)OC2=O)c(O)n1 [Compound 529] | < 80
26 | O=C(Nc1ccc(Oc2cccc(C(F)(F)F)c2)cc1)c1nc(Br)ccc1O [Compound 498] | < 80
27 | O=C(NCc1ccccc1)c1ccncc1O [Compound 506] | < 80
28 | COc1ccnc(C(=O)N[C@H]2O[C@@H](C)[C@@H](OC(C)=O)[C@@H](OC(C)=O)[C@@H]2OC(C)=O)c1O [Compound 333] | < 80

System: Septoria tritici—SEPTTR
Test: Leaf Blotch of Wheat, in vivo whole plant, 24 Hour Protectant
Settings: Zymoseptoria tritici, 24 h, 100 ppm spray, wheat, 24 hour protectant; control of fungal infection vs untreated plants; read-out: SEPTTR in vivo 1 Day Protectant

Row | Structure (SMILES) | pest or weed control at 100 ppm [%]
29 | COc1ccnc(C(=O)N[C@H]2O[C@@H](C)[C@@H](OC(C)=O)[C@@H](OC(C)=O)[C@@H]2OC(C)=O)c1O [Compound 333] | 25 to 74

Same assay, conditions: Zymoseptoria tritici, 24 h, wheat plants sprayed at 100 ppm, inoculated after 24 hours; control of fungal infection vs untreated plants; read-out: SEPTTR in vivo 1 Day Protectant

Row | Structure (SMILES) | pest or weed control at 100 ppm [%]
30 | Cc1cc(C)c(C(=O)N[C@H]2COC(=O)[C@H](Cc3ccccc3)[C@@H](OC(=O)C(C)C)[C@H](C)OC2=O)c(O)n1 [Compound 529] | 25 to 74
31 | O=C(Nc1ccc(Oc2cccc(C(F)(F)F)c2)cc1)c1nc(Br)ccc1O [Compound 498] | 25 to 74
32 | O=C(NCc1ccccc1)c1ccncc1O [Compound 506] | < 25

System: Phytophthora infestans—PHYTIN
Test: whole plant or invertebrate
Assay type: in vivo
Settings: Phytophthora, in Solanum lycopersicum, 24 h, read-out: PHYTIN in vivo 1 Day Protectant

Row | Structure (SMILES) | pest or weed control at 100 ppm [%]
33 | Cc1cc(C)c(C(=O)N[C@H]2COC(=O)[C@H](Cc3ccccc3)[C@@H](OC(=O)C(C)C)[C@H](C)OC2=O)c(O)n1 [Compound 529] | < 25
34 | O=C(Nc1ccc(Oc2cccc(C(F)(F)F)c2)cc1)c1nc(Br)ccc1O [Compound 498] | < 25
35 | O=C(NCc1ccccc1)c1ccncc1O [Compound 506] | < 25
36 | COc1ccnc(C(=O)N[C@H]2O[C@@H](C)[C@@H](OC(C)=O)[C@@H](OC(C)=O)[C@@H]2OC(C)=O)c1O [Compound 333] | < 25

System: Ustilago maydis (USTIMA)
Test: microbe, parasite or virus in culture
Assay type: cell-based
Settings: Mycosarcoma maydis, read-out: USTIMA in vitro Growth Inhibition

Row | Structure (SMILES) | inhibition at 25 ppm [%]
37 | Cc1cc(C)c(C(=O)N[C@H]2COC(=O)[C@H](Cc3ccccc3)[C@@H](OC(=O)C(C)C)[C@H](C)OC2=O)c(O)n1 [Compound 529] | < 80
38 | O=C(Nc1ccc(Oc2cccc(C(F)(F)F)c2)cc1)c1nc(Br)ccc1O [Compound 498] | < 80
39 | O=C(NCc1ccccc1)c1ccncc1O [Compound 506] | < 80
40 | COc1ccnc(C(=O)N[C@H]2O[C@@H](C)[C@@H](OC(C)=O)[C@@H](OC(C)=O)[C@@H]2OC(C)=O)c1O [Compound 333] | < 80

System: Puccinia recondita—PUCCRT
Test: Brown Rust of Wheat, in vivo whole plant, 24 Hour Protectant
Settings: Puccinia; 100 ppm spray, wheat, 24 hour protectant; control of fungal infection vs untreated plants; read-out: PUCCRT in vivo 1 Day Protectant

Row | Structure (SMILES) | pest or weed control at 100 ppm [%]
41 | COc1ccnc(C(=O)N[C@H]2O[C@@H](C)[C@@H](OC(C)=O)[C@@H](OC(C)=O)[C@@H]2OC(C)=O)c1O [Compound 333] | 25 to 74

Same assay, conditions: Puccinia; wheat plants sprayed at 100 ppm, inoculated after 24 hours; control of fungal infection vs untreated plants; read-out: PUCCRT in vivo 1 Day Protectant

Row | Structure (SMILES) | pest or weed control at 100 ppm [%]
42 | Cc1cc(C)c(C(=O)N[C@H]2COC(=O)[C@H](Cc3ccccc3)[C@@H](OC(=O)C(C)C)[C@H](C)OC2=O)c(O)n1 [Compound 529] | 25 to 74
43 | O=C(Nc1ccc(Oc2cccc(C(F)(F)F)c2)cc1)c1nc(Br)ccc1O [Compound 498] | 25 to 74
44 | O=C(NCc1ccccc1)c1ccncc1O [Compound 506] | < 25
